From patent publication US6838439B2, “Heterocytes as inhibitors of leucocyte adhesion and as VLA-4 antagonists” (Aventis Pharma Deutschland GmbH, priority 1996, dated 2005)

Target: T1, interaction between VCAM-1 and VLA-4 (VLA-4 on human U937 cells / hVCAM-1(1-3)-IgG) (Homo sapiens, UniProt P05556+P13612)
T1 construct: offered in their natural form as surface molecules on human U937 cells; host or cells: U937 cells carry the endogenous VLA-4; The partner hVCAM-1(1-3)-IgG was made in house in transfected COS cells (ATCC CRL1651) and used as culture supernatant
T1 sequence (P13612 34-1032): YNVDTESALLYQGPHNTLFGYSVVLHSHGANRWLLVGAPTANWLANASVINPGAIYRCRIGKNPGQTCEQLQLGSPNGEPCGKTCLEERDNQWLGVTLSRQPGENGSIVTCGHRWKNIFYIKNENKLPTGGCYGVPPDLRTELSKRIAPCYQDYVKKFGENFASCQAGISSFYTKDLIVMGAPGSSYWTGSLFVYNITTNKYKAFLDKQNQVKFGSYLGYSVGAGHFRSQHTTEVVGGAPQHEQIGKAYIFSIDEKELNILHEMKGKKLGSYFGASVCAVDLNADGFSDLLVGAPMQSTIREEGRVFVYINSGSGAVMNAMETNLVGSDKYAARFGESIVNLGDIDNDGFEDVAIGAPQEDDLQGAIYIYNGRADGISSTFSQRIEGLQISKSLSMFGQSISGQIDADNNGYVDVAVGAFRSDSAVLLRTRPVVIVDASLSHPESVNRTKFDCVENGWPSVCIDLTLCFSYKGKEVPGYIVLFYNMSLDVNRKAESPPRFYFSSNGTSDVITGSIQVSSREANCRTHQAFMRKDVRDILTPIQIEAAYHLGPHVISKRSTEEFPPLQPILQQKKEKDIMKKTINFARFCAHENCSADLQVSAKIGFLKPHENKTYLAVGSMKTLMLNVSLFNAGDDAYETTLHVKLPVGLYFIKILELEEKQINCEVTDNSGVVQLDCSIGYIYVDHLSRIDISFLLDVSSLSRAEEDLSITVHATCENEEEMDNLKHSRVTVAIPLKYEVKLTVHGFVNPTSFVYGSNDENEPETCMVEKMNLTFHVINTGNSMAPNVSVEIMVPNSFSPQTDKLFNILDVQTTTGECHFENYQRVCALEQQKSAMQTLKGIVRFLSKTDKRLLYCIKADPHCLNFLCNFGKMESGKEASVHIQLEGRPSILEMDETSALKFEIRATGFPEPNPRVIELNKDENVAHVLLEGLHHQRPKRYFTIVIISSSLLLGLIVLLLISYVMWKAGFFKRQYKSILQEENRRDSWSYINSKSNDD
T1 sequence (P05556 21-798): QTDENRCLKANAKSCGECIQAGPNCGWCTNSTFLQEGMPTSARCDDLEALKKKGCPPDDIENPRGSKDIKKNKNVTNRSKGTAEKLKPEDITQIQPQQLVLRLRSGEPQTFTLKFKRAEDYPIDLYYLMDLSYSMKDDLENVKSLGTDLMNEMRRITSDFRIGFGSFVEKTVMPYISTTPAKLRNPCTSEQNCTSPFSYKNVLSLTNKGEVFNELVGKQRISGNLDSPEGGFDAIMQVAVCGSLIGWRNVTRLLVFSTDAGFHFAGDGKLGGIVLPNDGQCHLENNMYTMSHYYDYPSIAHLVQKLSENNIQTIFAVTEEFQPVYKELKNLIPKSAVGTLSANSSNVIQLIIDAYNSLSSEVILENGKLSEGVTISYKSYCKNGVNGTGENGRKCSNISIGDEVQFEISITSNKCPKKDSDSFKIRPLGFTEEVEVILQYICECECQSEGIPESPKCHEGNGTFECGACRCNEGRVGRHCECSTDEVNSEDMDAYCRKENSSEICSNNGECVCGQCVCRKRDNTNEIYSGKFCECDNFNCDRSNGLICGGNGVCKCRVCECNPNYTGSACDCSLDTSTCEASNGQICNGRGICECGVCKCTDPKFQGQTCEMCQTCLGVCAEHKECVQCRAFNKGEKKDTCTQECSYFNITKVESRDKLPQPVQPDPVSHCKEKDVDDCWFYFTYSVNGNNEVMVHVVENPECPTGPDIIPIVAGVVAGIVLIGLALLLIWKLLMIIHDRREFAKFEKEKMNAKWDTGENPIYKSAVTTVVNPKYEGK
Assay: U937/VCAM-1 cell adhesion test: adhesion of U937 cells to hVCAM-1(1-3)-IgG
Type: cell-based
Details: inhibition of adhesion of U937 cells (ATCC CRL 1593) to hVCAM-1(1-3)-IgG
Description: As a test method for the activity of the compounds of the formula Ib on the interaction between VCAM-1 and VLA-4, an assay is used which is specific for this interaction. The cellular binding components, i.e. the VLA-4-integrins, are offered in their natural form as surface molecules on human U937 cells (ATCC CRL 1593), which belong to the group of leucocytes. As specific binding components, recombinant soluble fusion proteins prepared by genetic engineering and consisting of the extracytoplasmic domains of human VCAM-1 and the constant region of a human immunoglobulin of the subclass IgG1 are used.
Assay for the measurement of the adhesion of U937 cells (ATCC CRL 1593) to hVCAM-1(1-3)-IgG
1. Preparation of human VCAM-1(1-3)-IgG and human CD4-IgG
A genetic construct for the expression of the extracellular domains of human VCAM-1 was employed, associated with the genetic sequence of the heavy chain of human immunoglobulin IgG-1 (hinge, CH2 and CH3 regions), from Dr. Brian Seed, Massachusetts General Hospital, Boston, USA. The soluble fusion protein hVCAM-1(1-3)-IgG contained the three amino-terminal extracellular immunoglobulin-like domains of human VCAM-1 (Damle and Aruffo, Proc. Natl. Acad. Sci. USA 1991, 88, 6403). CD4-IgG (Zettlmeissl et al., DNA and Cell Biology 1990, 9, 347) served as a fusion protein for negative controls. The recombinant proteins were expressed as soluble proteins after DEAE/dextran-mediated DNA-transfection in COS cells (ATCC CRL1651) according to standard procedures (Ausubel et al., Current protocols in molecular biology, John Wiley & Sons, Inc., 1994).
2. Assay for measurement of the adhesion of U937 cells to hVCAM-1(1-3)-IgG
2.1 96-well microtiter test plates (Nunc Maxisorb) were incubated at room temperature for 1 hour with 100 μl/well of a goat-anti-human IgG antibody solution (10 μg/ml in 50 mM Tris, pH 9.5). After removing the antibody solution, washing was carried out once with PBS.
2.2 150 μl/well of a blocking buffer (1% BSA in PBS) was incubated on the plates at room temperature for 0.5 hours. After removing the blocking buffer, washing was carried out once with PBS.
2.3 100 μl per well of a cell culture supernatant of transfected COS cells were incubated on the plates at room temperature for 1.5 hours. The COS cells were transfected with a plasmid which codes for the three N-terminal immunoglobulin-like domains of VCAM-1, coupled to the Fc part of human IgG1 (hVCAM-1(1-3)-IgG). The content of hVCAM-1(1-3)-IgG was about 0.5-1 μg/ml. After removing the culture supernatant, washing was carried out once with PBS.
2.4 The plates were incubated at room temperature for 20 minutes with 100 μl/well of Fc receptor blocking buffer (1 mg/ml of γ-globulin, 100 mM NaCl, 100 μM MgCl2, 100 μM MnCl2, 100 μM CaCl2, 1 mg/ml BSA in 50 mM HEPES, pH 7.5). After removing the Fc receptor blocking buffer, washing was carried out once with PBS.
2.5 20 μl of binding buffer (100 μM NaCl, 100 μM MgCl2, 100 μM MnCl2, 100 μM CaCl2, 1 mg/ml BSA in 50 mM HEPES, pH 7.5), were initially introduced, the substances to be tested were added in 10 μl of binding buffer and the mixture was incubated for 20 minutes. As controls, antibodies against VCAM-1 (BBT, No. BBA6) and against VLA-4 (Immunotech, No. 0764) were used.
2.6 U937 cells were incubated in Fc receptor blocking buffer for 20 minutes and then pipetted in at a concentration of 1×10^6/ml and in an amount of 100 μl per well ([…]).
2.7 The plates were slowly immersed at an angle of 45° in stop buffer (100 mM NaCl, 100 μM MgCl2, 100 μM MnCl2, 100 μM CaCl2 in 25 mM Tris, pH 7.5) and shaken off. The process was repeated.
2.8 50 μl/well of a dye solution (16.7 μg/ml of Hoechst dye 33258, 4% formaldehyde, 0.5% Triton X-100 in PBS) were then incubated on the plates for 15 minutes.
2.9 The plates were shaken off and slowly immersed at an angle of 45° in stop buffer (100 mM NaCl, 100 μM MgCl2, 100 μM MnCl2, 100 μM CaCl2 in 25 mM tris, pH 7.5). The process was repeated. […]

Compared with `Cc1ccccc1NC(=O)NCc1ccc(C2(C)C(=O)N(CC(=O)N[C@@H](CC(=O)O)C(=O)N[C@H](C(=O)O)c3ccccc3)C(=O)N2Cc2ccccc2)cc1` (stereo partly drawn) [Example 6, ((R,S)-3 -Benzyl-4-methyl-4-(4-(3-(2-methylphenyl)ureidomethyl)phenyl)-2,5-dioxoimidazolidin-1-yl)acetyl-L-aspartyl-L-phenylglycine], `Cc1ccccc1NC(=O)Nc1ccc(C2(C)C(=O)N(CC(=O)N[C@@H](CC(=O)O)C(=O)N[C@H](C(=O)O)c3ccccc3)C(=O)N2Cc2ccccc2)cc1` (stereo partly drawn) [Example 3, ((R,S)-3-Benzyl-4-methyl-4-(4-(3-(2-methylphenyl)ureido)phenyl)-2,5-dioxoimidazolidin-1-yl)acetyl-L-aspartyl-L-phenylglycine] is 2.3-fold lower in IC50: 6.5 µM for the first, 2.8 µM for the second.

`CC1(c2ccc([N+](=O)[O-])cc2)C(=O)N(CC(=O)N[C@@H](CC(=O)O)C(=O)N[C@H](C(=O)O)c2ccccc2)C(=O)N1Cc1ccccc1` (stereo partly drawn) [Example 2, ((R,S)-3 -Benzyl-4-methyl-4-(4-nitrophenyl)-2,5-dioxoimidazolidin-1-yl)acetyl-L-aspartyl-L-phenylglycine] and `CC1(c2ccc(C#N)cc2)C(=O)N(CC(=O)N[C@@H](CC(=O)O)C(=O)N[C@H](C(=O)O)c2ccccc2)C(=O)N1Cc1ccc2ccccc2c1` (stereo partly shown) [Example 1] are within 1.5-fold of each other in IC50: 27.7 µM for the first, 30 µM for the second.

Compared with `CC1(c2ccc(CNC(=O)Nc3ccccc3)cc2)C(=O)N(CC(=O)N[C@@H](CC(=O)O)C(=O)N[C@H](C(=O)O)c2ccccc2)C(=O)N1Cc1ccccc1` (mixture of isomers) [Example 5, ((RS)-3-Benzyl-4-methyl-4-(4-(3-phenylureidomethyl)phenyl)-2,5-dioxoimidazolidin-1-yl)acetyl-L-aspartyl-L-phenylglycine], `CC1(c2ccc(CNC(=O)NCc3ccccc3)cc2)C(=O)N(CC(=O)N[C@@H](CC(=O)O)C(=O)N[C@H](C(=O)O)c2ccccc2)C(=O)N1Cc1ccccc1` (stereo partly drawn) [Example 4, ((R,S)-3-Benzyl-4-(4-(3-benzylureidomethyl)phenyl)-4-methyl-2,5-dioxoimidazolidin-1-yl)acetyl-L-aspartyl-L-phenylglycine] is 1.6-fold higher in IC50: 9 µM for the first, 14 µM for the second.

With `CC1(c2ccc(CNC(=O)NCCc3ccccc3)cc2)C(=O)N(CC(=O)N[C@@H](CC(=O)O)C(=O)N[C@H](C(=O)O)c2ccccc2)C(=O)N1Cc1ccccc1` (stereo partly drawn) [Example 7, ((R,S)-3-Benzyl-4-methyl-4-(4-(3-(2-phenylethyl)ureidomethyl)phenyl)-2,5-dioxoimidazolidin-1-yl)acetyl-L-aspartyl-L-phenylglycine] the IC50 was 20 µM.
